From patent US20130165520A1, “Hybrid Molecule Having Mixed Retinoic Acid Receptor Agonism and Histone Deacetylase Inhibitory Properties” (priority 2010, published 2013)

Tests used:
[1] = target: T1, RARα (Homo sapiens, UniProt P10276); test: BRET assay of agonist-dependent coactivator recruitment in transfected HEK293 cells; assay type: cell-based
T1 sequence (P10276 1-462): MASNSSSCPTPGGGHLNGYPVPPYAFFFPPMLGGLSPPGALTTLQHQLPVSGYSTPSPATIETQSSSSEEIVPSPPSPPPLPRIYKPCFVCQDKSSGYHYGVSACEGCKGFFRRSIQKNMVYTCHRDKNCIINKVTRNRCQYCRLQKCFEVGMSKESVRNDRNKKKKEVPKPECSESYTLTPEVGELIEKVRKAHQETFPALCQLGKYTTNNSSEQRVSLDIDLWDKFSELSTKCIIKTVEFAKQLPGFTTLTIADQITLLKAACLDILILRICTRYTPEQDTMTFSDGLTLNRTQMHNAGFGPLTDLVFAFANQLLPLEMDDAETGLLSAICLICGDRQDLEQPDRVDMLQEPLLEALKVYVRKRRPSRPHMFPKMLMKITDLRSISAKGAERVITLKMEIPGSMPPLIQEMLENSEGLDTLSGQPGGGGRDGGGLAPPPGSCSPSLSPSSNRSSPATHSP
Description: Hybrid 3 was prepared by treatment of the methyl ester of TTNN with excess hydroxylamine under alkaline conditions. The effects of hybrid 3 on RAR were initially assessed using a bioluminescence resonance energy transfer (BRET) assay. The BRET assay monitors agonist-dependent recruitment of coactivators to RARs in transfected HEK293 cells, chosen because of their high degree of transfectability. Energy transfer between luciferase (fused to RARα) and eGFP (fused to the LXXLL coactivator motif) occurs only when these moieties are juxtaposed by the RAR-LXXLL interaction, and can be detected by the emission of green fluorescence.
Cell transfection and BRET assays: HEK293 cells were grown to confluence, trypsinized and plated at a density of 500 k cells per well (12-well plates) in DMEM supplemented with 10% charcoal treated FBS (FBS-T). The following day, cells were transfected with PEI using 0.1 μg of RAR-RLuc vector and 1 μg of LXXLL-eGFP vector. 48 hours post-transfection, cells were treated with retinoids for 2 hours before taking BRET measurements as described previously.

[2] = target: purified human HDAC6 (Homo sapiens, UniProt Q9UBN7); test: Standard fluorescence HDAC assay; assay type: biochemical; conditions: purified human enzyme, read-out: IC50 against HDAC6
[3] = tested on: OVCAR-5; conditions: 48 h
[4] = tested on: MDA-MB-231/ATCC; test: cells; conditions: Homo sapiens, MDA-MB-231, 48 h
[5] = tested on: HCT-116; test: cells; conditions: Homo sapiens, HCT-116, 48 h
[6] = tested on: HL-60(TB); test: cells; conditions: Homo sapiens, HL-60, 48 h
[7] = tested on: SW-620; test: cells; conditions: Homo sapiens, SW-620, 48 h
[8] = tested on: NCI-H460; test: cells; conditions: Homo sapiens, NCI-H460, 48 h
[9] = tested on: COLO205; conditions: COLO205 (Colon); 48 h
[10] = tested on: SK-MEL-2; conditions: SK-MEL-2 (Melanoma); 48 h
[11] = tested on: HCT-116; conditions: HCT-116 (Colon); 48 h
[12] = tested on: MCF-7; test: Cell growth measurement; assay type: cell-based; conditions: 10 days of treatment
Description: (§1) Finally, the effects of 3 on the growth of several breast cancer cell lines [MCF-7 (ER-positive, HER2-negative, RA-sensitive); SkBr3 (ER-negative, HER2-amplified, RA-sensitive); and the normally RA-insensitive MDA-MB-231 (ER-negative, HER2-negative, RA-insensitive)] was assessed.
(§2) Cell Growth Measurement: Cells were plated at 40 k cells per well (6-well plate) in DMEM 5% FBS-T for all cell lines except for I-IMEC cells which were plated in supplemented MEBM from Clonetics. Cells were treated every 48 hours and media was refreshed every 96 hours. After 10 days of treatment cells were harvested in 0.1N NaOH and growth was quantified by analyzing protein content of lysates with a Lowry assay.

[13] = tested on: SkBr3; test: Cell growth measurement; assay type: cell-based; conditions: 10 days of treatment
Description: as §1, §2

[14] = tested on: MDA-MB-231; test: Cell growth measurement; assay type: cell-based; conditions: 10 days of treatment
Description: as §1, §2

[15] = tested on: MCF7; conditions: MCF7 (Breast); 48 h
[16] = tested on: CCRF-CEM; test: cells; conditions: Homo sapiens, 48 h
[17] = tested on: SF-295; conditions: SF-295 (CNS); 48 h
[18] = tested on: RXF393; test: cells; conditions: Homo sapiens, RXF 393, 48 h
[19] = tested on: HCC-2998; conditions: HCC-2998 (Colon); 48 h
[20] = tested on: NCI-H522; test: cells; conditions: Homo sapiens, NCI-H522, 48 h
[21] = tested on: OVCAR-3; conditions: 48 h
[22] = tested on: HT29; test: cells; conditions: Homo sapiens, HT-29, 48 h
[23] = tested on: SF-539; conditions: SF-539 (CNS); 48 h
[24] = tested on: NCI-H322M; conditions: NCI-H322M (Non-Small cell lung cancer); 48 h

Sequence of purified human HDAC6 (Q9UBN7 whole entry): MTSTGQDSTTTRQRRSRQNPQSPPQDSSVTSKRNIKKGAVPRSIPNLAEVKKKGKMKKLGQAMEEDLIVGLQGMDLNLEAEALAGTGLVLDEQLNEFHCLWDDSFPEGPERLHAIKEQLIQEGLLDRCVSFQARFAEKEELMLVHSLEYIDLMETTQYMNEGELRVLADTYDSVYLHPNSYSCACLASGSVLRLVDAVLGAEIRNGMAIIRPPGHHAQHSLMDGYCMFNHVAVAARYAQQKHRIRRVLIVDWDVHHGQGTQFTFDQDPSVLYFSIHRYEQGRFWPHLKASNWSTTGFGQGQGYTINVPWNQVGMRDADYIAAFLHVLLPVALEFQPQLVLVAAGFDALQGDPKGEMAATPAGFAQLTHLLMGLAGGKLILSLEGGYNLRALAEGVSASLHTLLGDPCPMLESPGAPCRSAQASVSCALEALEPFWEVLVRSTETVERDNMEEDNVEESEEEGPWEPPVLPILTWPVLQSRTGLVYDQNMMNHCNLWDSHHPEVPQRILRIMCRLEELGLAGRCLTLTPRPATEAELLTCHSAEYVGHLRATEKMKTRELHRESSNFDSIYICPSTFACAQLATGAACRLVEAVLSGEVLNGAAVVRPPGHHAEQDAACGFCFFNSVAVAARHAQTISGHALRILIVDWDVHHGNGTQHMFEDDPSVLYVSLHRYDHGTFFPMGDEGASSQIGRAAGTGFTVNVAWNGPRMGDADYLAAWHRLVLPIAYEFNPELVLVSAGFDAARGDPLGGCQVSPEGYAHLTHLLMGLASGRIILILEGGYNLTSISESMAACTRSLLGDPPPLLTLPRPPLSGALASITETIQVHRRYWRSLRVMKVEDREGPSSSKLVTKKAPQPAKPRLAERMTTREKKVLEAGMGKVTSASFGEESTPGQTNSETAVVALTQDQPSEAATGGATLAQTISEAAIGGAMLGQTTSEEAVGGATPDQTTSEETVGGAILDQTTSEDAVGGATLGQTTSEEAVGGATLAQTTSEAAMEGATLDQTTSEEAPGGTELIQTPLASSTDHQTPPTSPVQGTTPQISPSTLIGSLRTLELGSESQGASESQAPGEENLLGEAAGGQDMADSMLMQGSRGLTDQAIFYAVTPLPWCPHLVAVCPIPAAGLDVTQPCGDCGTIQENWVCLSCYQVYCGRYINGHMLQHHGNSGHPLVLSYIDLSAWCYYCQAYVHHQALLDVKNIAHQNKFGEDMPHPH

## CC1(C)CCC(C)(C)c2cc(-c3ccc4cc(C(=O)NO)ccc4c3)ccc21 [hybrid 3]
[1]; 1 μM, 2 hours treatment
  RARα agonism (BRET signal): agonists of RARα
[1]; FIG. 2b, read-out: IC50 in inducing RARα (BRET dose-response)
  EC50: 1.02 µM
[2]
  IC50: 0.148 µM
[3]
  TGI: 19.5 µM
[4]
  GI50: 1.2 µM
[4]; read-out: LC50
  CC50: 12 µM
[5]
  GI50: 0.424 µM
[5]; read-out: LC50
  CC50: 4.03 µM
[6]
  GI50: 0.353 µM
[6]; read-out: LC50
  CC50: 7.66 µM
[7]
  GI50: 0.626 µM
[7]; read-out: LC50
  CC50: 4.85 µM
[8]
  GI50: 0.34 µM
[8]; read-out: LC50
  CC50: 4.04 µM
[9]
  TGI: 2.33 µM
[10]
  TGI: 6.31 µM
[11]
  TGI: 1.5 µM
[12]
  effect on cell growth: active
[12]; Homo sapiens, MCF7, 240 h
  IC50: 0.15 µM
[13]
  effect on cell growth: active
[13]; Homo sapiens, SK-BR-3, 240 h
  IC50: 0.09 µM
[14]
  effect on cell growth: active
[14]; Homo sapiens, 240 h
  IC50: 0.3 µM
[15]
  TGI: 1.68 µM
[16]
  GI50: 0.306 µM
[16]; read-out: LC50
  CC50: > 100 µM
[17]
  TGI: 1.77 µM
[18]
  GI50: 1.26 µM
[18]; read-out: LC50
  CC50: 6.27 µM
[19]
  TGI: 2.51 µM
[20]
  GI50: 1.62 µM
[20]; read-out: LC50
  CC50: 7.98 µM
[21]
  TGI: 1.88 µM
[22]
  GI50: 0.575 µM
[22]; read-out: LC50
  CC50: 7.6 µM
[23]
  TGI: 7.26 µM
[24]
  TGI: 3.5 µM
